Data reported in patent publication US12351580B2, “NLRP3 modulators” (Innate Tumor Immunity, Inc., priority 2017, dated 2025).

Each compound was assayed against T1, TLR7 (Homo sapiens, UniProt Q9NYK1) (assay: In vitro human TLR7 binding reporter assay (HEK-Blue, NF-kB/AP1-inducible SEAP)). Details: activity range symbols.
T1 construct: host or cells: HEK-Blue cells (human HEK) co-expressing TLR7 and an NF-kB/AP1-inducible SEAP reporter
T1 sequence (Q9NYK1 27-1049): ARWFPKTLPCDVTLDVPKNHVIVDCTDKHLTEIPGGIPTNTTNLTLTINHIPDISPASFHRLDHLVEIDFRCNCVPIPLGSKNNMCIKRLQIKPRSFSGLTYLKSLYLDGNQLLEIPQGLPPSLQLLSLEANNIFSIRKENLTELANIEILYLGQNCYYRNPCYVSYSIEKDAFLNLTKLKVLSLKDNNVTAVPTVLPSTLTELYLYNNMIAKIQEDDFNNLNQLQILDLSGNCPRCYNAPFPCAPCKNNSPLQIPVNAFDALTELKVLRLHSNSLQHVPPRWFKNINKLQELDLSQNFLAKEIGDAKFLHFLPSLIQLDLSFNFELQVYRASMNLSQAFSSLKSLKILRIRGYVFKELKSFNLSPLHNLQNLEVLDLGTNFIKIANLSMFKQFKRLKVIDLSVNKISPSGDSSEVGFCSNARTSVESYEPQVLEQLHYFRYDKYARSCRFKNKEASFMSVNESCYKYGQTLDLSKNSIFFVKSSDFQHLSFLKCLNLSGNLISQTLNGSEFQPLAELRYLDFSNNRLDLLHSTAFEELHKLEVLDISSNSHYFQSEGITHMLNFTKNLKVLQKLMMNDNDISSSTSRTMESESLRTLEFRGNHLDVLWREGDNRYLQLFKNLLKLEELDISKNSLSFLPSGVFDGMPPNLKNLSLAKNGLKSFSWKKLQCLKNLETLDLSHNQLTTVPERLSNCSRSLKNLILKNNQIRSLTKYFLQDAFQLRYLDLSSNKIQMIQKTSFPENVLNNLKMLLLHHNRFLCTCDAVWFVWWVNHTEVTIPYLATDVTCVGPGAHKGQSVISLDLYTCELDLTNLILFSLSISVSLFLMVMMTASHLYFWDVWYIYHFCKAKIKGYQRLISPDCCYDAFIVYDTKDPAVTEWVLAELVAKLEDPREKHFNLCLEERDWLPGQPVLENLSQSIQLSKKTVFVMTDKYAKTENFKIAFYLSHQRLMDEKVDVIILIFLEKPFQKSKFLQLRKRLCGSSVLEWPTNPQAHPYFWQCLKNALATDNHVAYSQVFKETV
Format: cell-based
Description: In Vitro Human TLR7 and TLR8 Binding Reporter Assays
Logarithmically-growing human HEK-Blue cells co-expressing a TLR7 or TLR8 gene and a NF-kB/AP1-inducible SEAP (secreted embryonic alkaline phosphatase; Invivogen, San Diego, CA) reporter gene are added to individual wells of a 384-well plate (15,000 cells per 20 μL per well) and maintained for 24 h at 37° C., 5% CO2. Test compounds or DMSO are distributed to separate wells the next day using acoustic liquid handling technology (100 nL per well) and cells are subsequently incubated for 18 h at 37° C., 5% CO2. Cellular SEAP production is measured using an Envision plate reader instrument thirty minutes after adding freshly-made Quanti-Blue reagent (prepared by following manufacturer instructions; Invivogen, San Diego, CA) to the HEK-Blue TLR Nf-kB-SEAP cell reactions. All EC50 values (half-maximal effective concentration) are determined using proprietary data analysis software.
Compound Nc1nc2cc(-n3cccn3)ccc2c2[nH]c(CN3CC(c4ccccc4)CC3=O)nc12 (stereo not shown) [Compound 103] has an EC50 greater than 100 µM.
Compound CCN(Cc1nc2c(N)nc3cc(C)ccc3c2[nH]1)C(C)=O [Compound 104] has an EC50 greater than 100 µM.
For CCNCc1nc2c(N)nc3cc(-c4cc[nH]n4)ccc3c2n1C [Compound 106, 2-((Ethylamino)methyl)-1-methyl-7-(1H-pyrazol-3-yl)-1H-imidazo[4,5-c]quinolin-4-amine], the EC50 was greater than 100 µM.
CCN(Cc1nc2c(N)nc3cc(-n4cccn4)ccc3c2[nH]1)S(C)(=O)=O [Compound 108, N-((4-Amino-7-(1H-pyrazol-1-yl)-1H-imidazo[4,5-c]quinolin-2-yl)methyl)-N-ethylmethanesulfonamide] was tested, and the EC50 was greater than 100 µM.
CCN(Cc1nc2c(N)nc3cc(-c4cc[nH]n4)ccc3c2[nH]1)C(=O)OC(C)(C)C [Compound 109, tert-Butyl ((4-amino-7-(1H-pyrazol-3-yl)-1H-imidazo[4,5-c]quinolin-2-yl)methyl)(ethyl)carbamate] gave an EC50 greater than 100 µM.
Compound CCN(Cc1nc2c(N)nc3cc(-c4cc[nH]n4)ccc3c2[nH]1)C(=O)N(C)C [Compound 110, 1-((4-Amino-7-(1H-pyrazol-3-yl)-1H-imidazo[4,5-c]quinolin-2-yl)methyl)-1-ethyl-3,3-dimethylurea] has an EC50 greater than 100 µM.
Nc1nc2cc(C(F)(F)F)ccc2c2[nH]c(CN3CCCC3=O)nc12 [Compound 163] showed an EC50 of 20 to 100 µM.
CCN(Cc1nc2c(N)nc3ccccc3c2n1CCCC(=O)OC)C(C)=O [Compound 164] showed an EC50 greater than 100 µM.
CCN(Cc1nc2c(N)nc3cc(-c4ccccc4)ccc3c2[nH]1)C(C)=O [Compound 165, N-[(4-amino-7-phenyl-1H-imidazo[4,5-c]quinolin-2-yl)methyl]-N-ethylacetamide] gave an EC50 greater than 100 µM.
CCN(Cc1nc2c(N)nc3cc(-c4cccnc4)ccc3c2[nH]1)C(C)=O [Compound 166, N-[(4-amino-7-pyridin-3-yl-1H-imidazo[4,5-c]quinolin-2-yl)methyl]-N-ethylacetamide] gave an EC50 greater than 100 µM.
CCN(Cc1nc2c(N)nc3cc(-c4ccncc4)ccc3c2[nH]1)C(C)=O [Compound 167, N-[(4-amino-7-pyridin-4-yl-1H-imidazo[4,5-c]quinolin-2-yl)methyl]-N-ethylacetamide] gave an EC50 greater than 100 µM.
Work on CCN(Cc1nc2c(N)nc3cc(-c4cc(C)nn4C)ccc3c2[nH]1)C(C)=O [Compound 168, N-[[4-amino-7-(2,5-dimethylpyrazol-3-yl)-1H-imidazo[4,5-c]quinolin-2-yl]methyl]-N-ethylacetamide] yielded an EC50 greater than 100 µM.
CCCn1cc(-c2ccc3c(c2)nc(N)c2nc(CN(CC)C(C)=O)[nH]c23)cn1 [Compound 169, N-[[4-amino-7-(1-propylpyrazol-4-yl)-1H-imidazo[4,5-c]quinolin-2-yl]methyl]-N-ethylacetamide] gave an EC50 greater than 100 µM.
In the case of CCN(Cc1nc2c(N)nc3cc(C(C)C)ccc3c2[nH]1)C(C)=O [Compound 170, N-[(4-amino-7-propan-2-yl-1H-imidazo[4,5-c]quinolin-2-yl)methyl]-N-ethylacetamide], the EC50 is reported as 20 to 100 µM.
Compound CCc1ccc2c(c1)nc(N)c1nc(CN(CC)C(C)=O)[nH]c12 [Compound 171, N-[(4-amino-7-ethyl-1H-imidazo[4,5-c]quinolin-2-yl)methyl]-N-ethylacetamide] has an EC50 of 1 to 20 µM.
With CCCc1ccc2c(c1)nc(N)c1nc(CN(CC)C(C)=O)[nH]c12 [Compound 172, N-[(4-amino-7-propyl-1H-imidazo[4,5-c]quinolin-2-yl)methyl]-N-ethylacetamide] the EC50 was 1 to 20 µM.
CCN(Cc1nc2c(N)nc3cc(C4CCCC4)ccc3c2[nH]1)C(C)=O [Compound 173, N-[(4-amino-7-cyclopentyl-1H-imidazo[4,5-c]quinolin-2-yl)methyl]-N-ethylacetamide] showed an EC50 greater than 100 µM.
With CCN(Cc1nc2c(N)nc3cc(-c4cccnc4F)ccc3c2[nH]1)C(C)=O [Compound 175, N-[[4-amino-7-(2-fluoropyridin-3-yl)-1H-imidazo[4,5-c]quinolin-2-yl]methyl]-N-ethylacetamide] the EC50 was greater than 100 µM.
CCN(Cc1nc2c(N)nc3ccccc3c2[nH]1)C(C)=O [Compound 176] gave an EC50 greater than 100 µM.
